Test results: patent publication US8192962B2, “Processes for detecting toxic substances” (Daikin Industries, Ltd., priority 2001, dated 2012)

Tested on: Transport facilitation protein genes
Experiment: DNA chip mRNA expression in yeast, transport facilitation protein genes (Table 5)
Assay type: cell-based, Saccharomyces cerevisiae S288C
Outline: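 Value is the scanned fluorescence intensity ratio of exposed versus chemical-free cells. Log-phase S288C yeast in YPD at 25° C. received one toxic substance for two hours, dosed to slow growth without killing; Cy3/Cy5-labeled cDNA from oligo-dT-purified mRNA was hybridized to a whole-genome chip at 65° C.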

Q: With [Cl][Pb][Cl] [(4), PbCl2] as the molecule, how does the “The level of expressed mRNA in the presence of chemical substance/The level of expressed mRNA in the absence of chemical substance” value (yeast gene YBL030C) read?
A: 0.9

Q: And the “The level of expressed mRNA in the presence of chemical substance/The level of expressed mRNA in the absence of chemical substance” value (yeast gene YBL099W)?
A: 1.4

Q: And the “The level of expressed mRNA in the presence of chemical substance/The level of expressed mRNA in the absence of chemical substance” value (yeast gene YBR052C)?
A: 2.6

Q: What about the “The level of expressed mRNA in the presence of chemical substance/The level of expressed mRNA in the absence of chemical substance” value (yeast gene YBR068C) of the same molecule?
A: 2.5

Q: And the “The level of expressed mRNA in the presence of chemical substance/The level of expressed mRNA in the absence of chemical substance” value (yeast gene YBR127C)?
A: 1.1

Q: And the “The level of expressed mRNA in the presence of chemical substance/The level of expressed mRNA in the absence of chemical substance” value (yeast gene YBR132C)?
A: 1.8

Q: And the “The level of expressed mRNA in the presence of chemical substance/The level of expressed mRNA in the absence of chemical substance” value (yeast gene YBR207W)?
A: 2.0

Q: And the “The level of expressed mRNA in the presence of chemical substance/The level of expressed mRNA in the absence of chemical substance” value (yeast gene YBR293W)?
A: 1.8

Q: And the “The level of expressed mRNA in the presence of chemical substance/The level of expressed mRNA in the absence of chemical substance” value (yeast gene YBR294W)?
A: 2.6

Q: And the “The level of expressed mRNA in the presence of chemical substance/The level of expressed mRNA in the absence of chemical substance” value (yeast gene YBR295W)?
A: 1.1

Q: What about the “The level of expressed mRNA in the presence of chemical substance/The level of expressed mRNA in the absence of chemical substance” value (yeast gene YBR298C) of the same molecule?
A: 2.3

Q: And the “The level of expressed mRNA in the presence of chemical substance/The level of expressed mRNA in the absence of chemical substance” value (yeast gene YCL025C)?
A: 1.7

Q: What about the “The level of expressed mRNA in the presence of chemical substance/The level of expressed mRNA in the absence of chemical substance” value (yeast gene YCL038C) of the same molecule?
A: 1.6

Q: And the “The level of expressed mRNA in the presence of chemical substance/The level of expressed mRNA in the absence of chemical substance” value (yeast gene YCR037C)?
A: 0.8

Q: What about the “The level of expressed mRNA in the presence of chemical substance/The level of expressed mRNA in the absence of chemical substance” value (yeast gene YCR098C) of the same molecule?
A: 2.0

Q: What about the “The level of expressed mRNA in the presence of chemical substance/The level of expressed mRNA in the absence of chemical substance” value (yeast gene YDL128W) of the same molecule?
A: 1.0

Q: And the “The level of expressed mRNA in the presence of chemical substance/The level of expressed mRNA in the absence of chemical substance” value (yeast gene YDL198C)?
A: 1.4

Q: And the “The level of expressed mRNA in the presence of chemical substance/The level of expressed mRNA in the absence of chemical substance” value (yeast gene YDL210W)?
A: 1.1

Q: What about the “The level of expressed mRNA in the presence of chemical substance/The level of expressed mRNA in the absence of chemical substance” value (yeast gene YDL245C) of the same molecule?
A: 2.2

Q: And the “The level of expressed mRNA in the presence of chemical substance/The level of expressed mRNA in the absence of chemical substance” value (yeast gene YDR038C)?
A: 0.9

Q: What about the “The level of expressed mRNA in the presence of chemical substance/The level of expressed mRNA in the absence of chemical substance” value (yeast gene YDR039C) of the same molecule?
A: 0.9

Q: What about the “The level of expressed mRNA in the presence of chemical substance/The level of expressed mRNA in the absence of chemical substance” value (yeast gene YDR086C) of the same molecule?
A: 1.4

Q: And the “The level of expressed mRNA in the presence of chemical substance/The level of expressed mRNA in the absence of chemical substance” value (yeast gene YDR270W)?
A: 1.3

Q: And the “The level of expressed mRNA in the presence of chemical substance/The level of expressed mRNA in the absence of chemical substance” value (yeast gene YDR298C)?
A: 1.3

Q: What about the “The level of expressed mRNA in the presence of chemical substance/The level of expressed mRNA in the absence of chemical substance” value (yeast gene YDR342C) of the same molecule?
A: 5.7

Q: And the “The level of expressed mRNA in the presence of chemical substance/The level of expressed mRNA in the absence of chemical substance” value (yeast gene YDR343C)?
A: 4.6

Q: And the “The level of expressed mRNA in the presence of chemical substance/The level of expressed mRNA in the absence of chemical substance” value (yeast gene YDR345C)?
A: 2.6

Q: What about the “The level of expressed mRNA in the presence of chemical substance/The level of expressed mRNA in the absence of chemical substance” value (yeast gene YDR387C) of the same molecule?
A: 2.2

Q: What about the “The level of expressed mRNA in the presence of chemical substance/The level of expressed mRNA in the absence of chemical substance” value (yeast gene YDR497C) of the same molecule?
A: 1.3

Q: And the “The level of expressed mRNA in the presence of chemical substance/The level of expressed mRNA in the absence of chemical substance” value (yeast gene YEL027W)?
A: 1.1

Q: What about the “The level of expressed mRNA in the presence of chemical substance/The level of expressed mRNA in the absence of chemical substance” value (yeast gene YEL063C) of the same molecule?
A: 1.3

Q: What about the “The level of expressed mRNA in the presence of chemical substance/The level of expressed mRNA in the absence of chemical substance” value (yeast gene YEL065W) of the same molecule?
A: 0.4

Q: What about the “The level of expressed mRNA in the presence of chemical substance/The level of expressed mRNA in the absence of chemical substance” value (yeast gene YER053C) of the same molecule?
A: 1.7

Q: What about the “The level of expressed mRNA in the presence of chemical substance/The level of expressed mRNA in the absence of chemical substance” value (yeast gene YFL011W) of the same molecule?
A: 3.3

Q: And the “The level of expressed mRNA in the presence of chemical substance/The level of expressed mRNA in the absence of chemical substance” value (yeast gene YFL041W)?
A: 1.2

Q: And the “The level of expressed mRNA in the presence of chemical substance/The level of expressed mRNA in the absence of chemical substance” value (yeast gene YFL050C)?
A: 2.2

Q: And the “The level of expressed mRNA in the presence of chemical substance/The level of expressed mRNA in the absence of chemical substance” value (yeast gene YFL054C)?
A: 2.2

Q: And the “The level of expressed mRNA in the presence of chemical substance/The level of expressed mRNA in the absence of chemical substance” value (yeast gene YGL006W)?
A: 2.6

Q: What about the “The level of expressed mRNA in the presence of chemical substance/The level of expressed mRNA in the absence of chemical substance” value (yeast gene YGL008C) of the same molecule?
A: 0.9

Q: What about the “The level of expressed mRNA in the presence of chemical substance/The level of expressed mRNA in the absence of chemical substance” value (yeast gene YGL104C) of the same molecule?
A: 1.8

Q: And the “The level of expressed mRNA in the presence of chemical substance/The level of expressed mRNA in the absence of chemical substance” value (yeast gene YGL167C)?
A: 1.3

Q: And the “The level of expressed mRNA in the presence of chemical substance/The level of expressed mRNA in the absence of chemical substance” value (yeast gene YGL255W)?
A: 0.8

Q: And the “The level of expressed mRNA in the presence of chemical substance/The level of expressed mRNA in the absence of chemical substance” value (yeast gene YGR055W)?
A: 0.7

Q: What about the “The level of expressed mRNA in the presence of chemical substance/The level of expressed mRNA in the absence of chemical substance” value (yeast gene YGR065C) of the same molecule?
A: 1.1

Q: What about the “The level of expressed mRNA in the presence of chemical substance/The level of expressed mRNA in the absence of chemical substance” value (yeast gene YGR082W) of the same molecule?
A: 1.0

Q: What about the “The level of expressed mRNA in the presence of chemical substance/The level of expressed mRNA in the absence of chemical substance” value (yeast gene YGR096W) of the same molecule?
A: 4.6

Q: And the “The level of expressed mRNA in the presence of chemical substance/The level of expressed mRNA in the absence of chemical substance” value (yeast gene YGR138C)?
A: 1.2

Q: What about the “The level of expressed mRNA in the presence of chemical substance/The level of expressed mRNA in the absence of chemical substance” value (yeast gene YGR191W) of the same molecule?
A: 1.5

Q: What about the “The level of expressed mRNA in the presence of chemical substance/The level of expressed mRNA in the absence of chemical substance” value (yeast gene YGR197C) of the same molecule?
A: 1.0

Q: What about the “The level of expressed mRNA in the presence of chemical substance/The level of expressed mRNA in the absence of chemical substance” value (yeast gene YGR224W) of the same molecule?
A: 1.2
